How the values were obtained:
[1] = tested on: post-synaptic receptors in the hippocampus; settings: cited from earlier work
5-HT receptors = settings: cited from earlier work
depressed subjects = test: Antidepressant efficacy with and without concomitant NSAIDs in depressed subjects (HAMD-17); type: in vivo, human; settings: for HAMD-17 CFB (change from baseline) / Remitters (HAMD-17 score of 7 or less after treatment) / Responders (50% improvement in HAMD-17): end of treatment
Text: To control for a placebo effect, 1045 depressed patients taking placebo were studied. Finally, 1041 depressed subjects taking gepirone-ER were studied. In contrast to the STAR-D study, three measures of efficacy were employed: remitters (HAMD-17 score 7 or less at end of treatment), responders (HAMD-17 50% reduction from baseline score at end of treatment) and HAMD-17 total score (change from baseline at end of treatment). Further, to test a possible dose of NSAID effect, two dose levels were tested: subjects taking any NSAID any time and subjects taking daily aspirin and other NSAIDs.

[2] = tested on: depressed patients taking an NSAID; test: Individual patient cases from the study (Examples 1 and 2), HAMD-17; type: in vivo, human; settings: Example 2: person taking ibuprofen
Text: The following Examples represent a sampling of the subjects studied:
A person came to a psychiatric clinic complaining of depression. Their symptoms included: depressed mood, insomnia, lack of energy, low sex drive, and mild suicidal thoughts. They also were being treated for cardiac complains and was taking a daily NSAID (aspirin) to improve blood flow. They refused to discontinue their aspirin because their cardiologist had prohibited them from doing so. Their initial HAMD-17 was 26. After 8 weeks of treatment with Gepirone-ER all of their depressive symptoms had been eliminated.
A person came into the same psychiatric clinic complaining of depression. Their symptoms included depressed mood, lethargy, guilt, and trouble waking up early in the morning. They were also being treated by their neurologist for chronic headaches with ibuprofen. They refused to discontinue the ibuprofen because the headaches interfered with their ability to work. Their initial HAMD-17 was 16. […] A further trial of a second SSRI (citalopram) also failed.

[3] = tested on: presynaptic α-2-adrenoceptor; settings: cited from earlier work
[4] = in vivo; cited from earlier work
[5] = High NSAID (daily aspirin and other NSAIDs)
[6] = High NSAID (daily aspirin and other NSAIDs), listed as fluoxetine
[7] = no NSAID (None), comparison to Any NSAID
[8] = no NSAID (None), comparison to High NSAID
[9] = subjects taking any NSAID any time

Structure (SMILES): CC1(C)CC(=O)N(CCCCN2CCN(c3ncccn3)CC2)C(=O)C1O (stereo not drawn) [3′-OH gepirone]
- Agonism at post-synaptic receptors in the hippocampus [1]: full agonism
- Affinity for 5-HT receptors (5-HT receptors): significant affinity

Structure (SMILES): CNCCC(Oc1ccc(C(F)(F)F)cc1)c1ccccc1 (stereo not drawn) [Fluoxetine]
- HAMD-17 CFB (change from baseline) (depressed subjects; [5]): −9.03
- Remitters (HAMD-17 score of 7 or less after treatment) (depressed subjects; [5]): 27%
- Responders (50% improvement in HAMD-17) (depressed subjects; [5]): 45%
- HAMD-17 CFB (change from baseline) (depressed subjects; [6]): −9.04
- Responders (50% improvement in HAMD-17) (depressed subjects; [6]): 45%
- Effect of NSAIDs on antidepressant efficacy (depressed subjects; either NSAID dose level, three efficacy measures): NSAIDs interfere with the antidepressant activity
- HAMD-17 CFB (change from baseline) (depressed subjects; [7]): −10.5
- Remitters (HAMD-17 score of 7 or less after treatment) (depressed subjects; [7]): 28.3%
- Responders (50% improvement in HAMD-17) (depressed subjects; [7]): 51%
- Remitters (HAMD-17 score of 7 or less after treatment) (depressed subjects; [8]): 32%
- Responders (50% improvement in HAMD-17) (depressed subjects; [8]): 55%
- Responders (50% improvement in HAMD-17) (depressed subjects; no NSAID (None), comparison to High NSAID, listed as fluoxetine): 55%
- HAMD-17 CFB (change from baseline) (depressed subjects; [9]): −9.57
- Remitters (HAMD-17 score of 7 or less after treatment) (depressed subjects; [9]): 29%
- Responders (50% improvement in HAMD-17) (depressed subjects; [9]): 48%
- Clinical outcome [2]: no improvement
- HAMD-17 score after treatment ([2]; initial HAMD-17 16, after 8 weeks of treatment): 20

Structure (SMILES): c1cnc(N2CCNCC2)nc1 [1-PP, 1-(2-pyrimidinyl)piperazine]
- Action at presynaptic α-2-adrenoceptor [3]: antagonist
- Antidepressant-like characteristics in pre-clinical tests [4]: did not exhibit antidepressant-like characteristics

From US20130150375A1, “GEPIRONE-ER TREATMENT OF MAJOR DEPRESSION IN PATIENTS TAKING NON-STEROIDAL ANTI-INFLAMMATORY DRUGS (NSAIDs)” (Fabre-Kramer Pharmaceuticals.Inc., priority 2011, published 2013)
